Some test systems named below: DU-145 prostate; HOP-92 NSCLC; OVCAR-8 ovarian; RXF 393 renal; UACC-62 melanoma; SNB-19 CNS; A498 renal; RPMI-8226 leukemia; LOX IMVI melanoma; IGROV1 ovarian.
What all share (experiment): DTP human tumour cell line panel, 48 h

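How tested: cells in 96-well plates exposed to compound for 48 hours at five concentrations. Here, GI50 denotes the concentration required for 50% inhibition of growth. The concentration for full growth arrest is given as TGI.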 Some results are limits rather than exact numbers.

A word on the TGI: it is the concentration giving total growth inhibition. Low values mean greater sensitivity of the cells, high ones lower sensitivity of the cells. Take `COc1cccc2ccc3c(c12)C(=O)OC31CCc2c(C)cccc21` (centres undefined): the TGI was above 100 µM in the assay with DU-145 prostate; 87.9 µM in the assay with HOP-92 NSCLC; above 46.4 µM in the assay with OVCAR-8 ovarian; 44.6 µM in the assay with RXF 393 renal; above 46.4 µM with UACC-62 melanoma; above 46.4 µM with SNB-19 CNS. Further, the TGI was 22.7 µM with A498 renal, 21.5 µM in the assay with RPMI-8226 leukemia, above 46.4 µM in the assay on LOX IMVI melanoma and above 46.4 µM in the assay with IGROV1 ovarian.
A word on the GI50: it is the concentration at which growth is held to half of that of the control. Turning to `COc1cc(/C=C/c2cc(/C=C/c3ccc(O)c(OC)c3)[nH]c(=O)n2)ccc1O`, the GI50 in the assay with DU-145 prostate was 4.91 µM; with HOP-92 NSCLC it was 2.28 µM; in the assay on OVCAR-8 ovarian, 3.01 µM; in the assay with RXF 393 renal, 2.24 µM; in the assay on UACC-62 melanoma, 3.39 µM; in the assay on SNB-19 CNS, 3.38 µM. The GI50 with A498 renal is 3.11 µM; with RPMI-8226 leukemia it was 2.1 µM; in the assay with LOX IMVI melanoma, 3.16 µM; with IGROV1 ovarian it was 4.41 µM. In addition, the concentration for total growth inhibition (TGI) in the assay with DU-145 prostate is 35.4 µM; with HOP-92 NSCLC, 9.24 µM; in the assay with OVCAR-8 ovarian, 12.7 µM; with RXF 393 renal, 4.93 µM; in the assay on UACC-62 melanoma it was 43.2 µM; with SNB-19 CNS, above 100 µM. Besides, the TGI in the assay on A498 renal is 25.2 µM; with RPMI-8226 leukemia, 5.68 µM; with LOX IMVI melanoma it was above 100 µM; in the assay on IGROV1 ovarian, above 100 µM.
Turning to `NC(=S)N/N=C\c1nccc2c(C(F)(F)C(F)(F)C(F)(F)F)cccc12`, the GI50 with DU-145 prostate was 0.11 µM; in the assay with HOP-92 NSCLC, 0.116 µM; in the assay on OVCAR-8 ovarian, 0.0402 µM; with RXF 393 renal, 0.113 µM; with UACC-62 melanoma, 0.171 µM; in the assay with SNB-19 CNS, 0.196 µM. Further, the GI50 in the assay with A498 renal is 0.464 µM; in the assay on RPMI-8226 leukemia, 0.264 µM; in the assay with LOX IMVI melanoma, 0.0725 µM; in the assay on IGROV1 ovarian it was 0.223 µM. Moreover, the TGI worked out at 2.92 µM with DU-145 prostate; 1.44 µM with HOP-92 NSCLC; 1.59 µM in the assay with OVCAR-8 ovarian; 1.26 µM with RXF 393 renal; 0.511 µM in the assay with UACC-62 melanoma; 5.21 µM in the assay on SNB-19 CNS. For the same compound, the TGI was found to be 2.1 µM with A498 renal, 1.34 µM in the assay on LOX IMVI melanoma and 1.93 µM in the assay on IGROV1 ovarian.
For `CC(=O)Nc1cc2cc(NS(=O)(=O)c3cc(C(F)(F)F)cc(C(F)(F)F)c3)ccc2oc1=O`, the TGI in the assay with DU-145 prostate is above 100 µM; with HOP-92 NSCLC it was above 100 µM; in the assay on OVCAR-8 ovarian it was above 100 µM; with RXF 393 renal, 0.811 µM; in the assay with UACC-62 melanoma it was above 100 µM; in the assay with SNB-19 CNS, above 100 µM. Moreover, the total growth inhibition concentration (TGI) with A498 renal, in the assay on RPMI-8226 leukemia, with LOX IMVI melanoma and with IGROV1 ovarian was above 100 µM each time.
On to `C[C@H]1CC2=CC(=O)CC[C@]2(C)[C@H]2CC[C@@]3(C)[C@@H](CC[C@]3(C)O)[C@H]12`, for which the GI50 in the assay on DU-145 prostate is 45.7 µM; in the assay on HOP-92 NSCLC, 8.66 µM; in the assay on OVCAR-8 ovarian it was 34 µM; with RXF 393 renal, 24.8 µM; in the assay with UACC-62 melanoma, 22.2 µM; in the assay with SNB-19 CNS, 43.3 µM. The GI50 in the assay on A498 renal is 28.2 µM; in the assay on RPMI-8226 leukemia it was 7.58 µM; in the assay on LOX IMVI melanoma, 29.2 µM; in the assay on IGROV1 ovarian, 27.3 µM. The TGI in the assay on DU-145 prostate was above 96.3 µM; in the assay on HOP-92 NSCLC it was 44.3 µM; in the assay with OVCAR-8 ovarian, above 100 µM; in the assay on RXF 393 renal, 76.9 µM; with UACC-62 melanoma, above 67 µM; in the assay with SNB-19 CNS, above 100 µM. Also, the concentration for total growth inhibition (TGI) is above 82.8 µM in the assay on A498 renal, 38 µM with RPMI-8226 leukemia, above 100 µM in the assay with LOX IMVI melanoma and above 73.3 µM with IGROV1 ovarian.
In the case of `Cc1ccc(S(=O)(=O)c2ccsc2N)cc1`, the GI50 in the assay with DU-145 prostate is above 100 µM; with HOP-92 NSCLC it was 73.9 µM; in the assay with OVCAR-8 ovarian it was above 100 µM; in the assay with RXF 393 renal, 63.9 µM; with UACC-62 melanoma, above 100 µM; in the assay on SNB-19 CNS, above 100 µM. Also, the GI50 with A498 renal is 40.7 µM; in the assay on RPMI-8226 leukemia, 95.4 µM; in the assay on LOX IMVI melanoma, above 100 µM; with IGROV1 ovarian it was above 100 µM. The TGI in the assay on DU-145 prostate, in the assay on HOP-92 NSCLC, in the assay on OVCAR-8 ovarian, in the assay with RXF 393 renal, in the assay on UACC-62 melanoma and in the assay on SNB-19 CNS was above 100 µM throughout. The total growth inhibition concentration (TGI) in the assay on A498 renal, with RPMI-8226 leukemia, in the assay with LOX IMVI melanoma and in the assay with IGROV1 ovarian was above 100 µM throughout.

The record behind these values is PubChem BioAssay (NCI).
